Source: ChEMBL document CHEMBL1201862, “PubChem BioAssay data set” (2004)
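96-well plates; 48 h exposure; 5 concentrations. Endpoints by linear interpolation between flanking doses. Not reached: highest tested concentration assigned. Here, GI50 denotes the concentration required for 50% inhibition of growth.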 Activity calls are given as the source filed them. Rule as the data show it: active = GI50 up to about 1.1 µM and inactive = higher.

Columns and labels:
Experiment in all cases: DTP human tumour cell line panel, 48 h
SNB-75 = tested on: SNB-75
NCI-H460 = tested on: NCI-H460
SW-620 = tested on: SW-620
Malme-3M = tested on: Malme-3M
EKVX = tested on: EKVX
OVCAR-8 = tested on: OVCAR-8
UACC-257 = tested on: UACC-257
SK-MEL-28 = tested on: SK-MEL-28
NCI-H522 = tested on: NCI-H522
LOX IMVI = tested on: LOX IMVI
ACHN = tested on: ACHN
HL-60 = tested on: HL-60
A549 = tested on: A549
CCRF-CEM = tested on: CCRF-CEM
SR = tested on: SR
RXF 393 = tested on: RXF 393

Compound | GI50 (SNB-75) | GI50 (NCI-H460) | GI50 (SW-620) | GI50 (Malme-3M) | GI50 (EKVX) | GI50 (OVCAR-8) | GI50 (UACC-257) | GI50 (SK-MEL-28) | GI50 (NCI-H522) | GI50 (LOX IMVI) | GI50 (ACHN) | GI50 (HL-60) | GI50 (A549) | GI50 (CCRF-CEM) | GI50 (SR) | GI50 (RXF 393)
O=C(NC(=S)Nc1ccccc1)c1ccc([N+](=O)[O-])cc1 | > 100 µM (inactive) | 37.1 µM (inactive) | > 100 µM (inactive) | > 100 µM (inactive) | > 100 µM (inactive) | > 100 µM (inactive) | 60.3 µM (inactive) | > 100 µM (inactive) | 18.3 µM (inactive) | 84.1 µM (inactive) | 83.9 µM (inactive) | 36.8 µM (inactive) | 41.9 µM (inactive) | 31.3 µM (inactive) | – | –
Cc1c(C(=O)C/C(=N\O)C(=O)Nc2cc(Cl)c(Cl)cc2Cl)[n+]([O-])c2ccccc2[n+]1[O-] | 33.2 µM (inactive) | 12.8 µM (inactive) | 2.9 µM (inactive) | 9.14 µM (inactive) | 22.9 µM (inactive) | 8.91 µM (inactive) | 7.85 µM (inactive) | 22.4 µM (inactive) | 3.96 µM (inactive) | 6.65 µM (inactive) | 17.5 µM (inactive) | 16.1 µM (inactive) | 25.6 µM (inactive) | 32.7 µM (inactive) | 24.2 µM (inactive) | 22.5 µM (inactive)
COc1cc(C(C)c2cc3c(cc2OCCN)OCO3)cc(OC)c1OC (stereo not drawn) | 18.5 µM (inactive) | > 100 µM (inactive) | > 100 µM (inactive) | > 100 µM (inactive) | 36.2 µM (inactive) | > 100 µM (inactive) | 6.7 µM (inactive) | 28.2 µM (inactive) | 78.5 µM (inactive) | > 100 µM (inactive) | > 100 µM (inactive) | 20 µM (inactive) | > 100 µM (inactive) | 35.2 µM (inactive) | 40.4 µM (inactive) | 21.8 µM (inactive)
COc1ccc(N2C(=O)C3c4[nH]c5ccc(OC)cc5c4C4CCC(C(C)(C)C)CC4C3C2=O)cc1 (stereo not drawn) | 12.3 µM (inactive) | 16.6 µM (inactive) | 93.5 µM (inactive) | 7.03 µM (inactive) | 24.7 µM (inactive) | 25 µM (inactive) | 55.2 µM (inactive) | 23.2 µM (inactive) | 20.7 µM (inactive) | 34.2 µM (inactive) | 28.5 µM (inactive) | 43 µM (inactive) | 26.7 µM (inactive) | 58.6 µM (inactive) | 17.4 µM (inactive) | 16.1 µM (inactive)
CN(CCc1ccccn1)c1nc(=[N+](C)C)ss1 | > 100 µM (inactive) | 46.3 µM (inactive) | > 100 µM (inactive) | > 100 µM (inactive) | > 100 µM (inactive) | > 100 µM (inactive) | > 100 µM (inactive) | > 100 µM (inactive) | 8.02 µM (inactive) | > 100 µM (inactive) | > 100 µM (inactive) | > 100 µM (inactive) | 35.3 µM (inactive) | 81.3 µM (inactive) | – | > 100 µM (inactive)
Cc1nnc2n1N=C(CC(=O)c1ccc(O)cc1O)CN2N | – | 38.7 µM (inactive) | 14.9 µM (inactive) | > 100 µM (inactive) | > 100 µM (inactive) | – | > 100 µM (inactive) | > 100 µM (inactive) | – | 68.9 µM (inactive) | > 100 µM (inactive) | 75.3 µM (inactive) | > 100 µM (inactive) | > 100 µM (inactive) | – | > 100 µM (inactive)
O=C(O)C1CCC(=O)N1C(=O)C(Cl)c1ccccc1 (stereo not drawn) | > 100 µM (inactive) | > 100 µM (inactive) | > 100 µM (inactive) | > 100 µM (inactive) | > 100 µM (inactive) | > 100 µM (inactive) | > 100 µM (inactive) | > 100 µM (inactive) | > 100 µM (inactive) | > 100 µM (inactive) | > 100 µM (inactive) | > 100 µM (inactive) | > 100 µM (inactive) | > 100 µM (inactive) | – | –
Cn1c(C2CCCc3c2c2ccccc2n3C)cc2ccccc21 (stereo not drawn) | – | 125 µM (inactive) | 78 µM (inactive) | 20.5 µM (inactive) | 115 µM (inactive) | > 318 µM (inactive) | 90.2 µM (inactive) | 114 µM (inactive) | 40.4 µM (inactive) | 130 µM (inactive) | > 318 µM (inactive) | 65.5 µM (inactive) | 128 µM (inactive) | 140 µM (inactive) | 71.9 µM (inactive) | 95.1 µM (inactive)
CCCCCCCCCCCC(=O)CC(=O)c1c(O)cccc1O | 19.4 µM (inactive) | 19 µM (inactive) | 17.1 µM (inactive) | 15.5 µM (inactive) | 17.8 µM (inactive) | 16.6 µM (inactive) | 17.5 µM (inactive) | 21.4 µM (inactive) | 22.2 µM (inactive) | 17.4 µM (inactive) | 19.2 µM (inactive) | 34.9 µM (inactive) | 17.9 µM (inactive) | > 100 µM (inactive) | 19.4 µM (inactive) | 17.7 µM (inactive)
CCCC(=O)C(CC)/C(CCC(=O)N(Cc1ccccc1)Cc1ccccc1)=N/NC(=O)C[N+](C)(C)C (stereo not drawn) | > 100 µM (inactive) | > 100 µM (inactive) | > 100 µM (inactive) | > 100 µM (inactive) | > 100 µM (inactive) | > 100 µM (inactive) | > 100 µM (inactive) | > 100 µM (inactive) | > 100 µM (inactive) | – | > 100 µM (inactive) | > 100 µM (inactive) | > 100 µM (inactive) | > 100 µM (inactive) | > 100 µM (inactive) | > 100 µM (inactive)
Nc1ccc2n[se]nc2c1 | > 100 µM (inactive) | > 100 µM (inactive) | > 100 µM (inactive) | > 100 µM (inactive) | > 100 µM (inactive) | > 100 µM (inactive) | > 100 µM (inactive) | > 100 µM (inactive) | – | 29.6 µM (inactive) | > 100 µM (inactive) | 42.4 µM (inactive) | > 100 µM (inactive) | > 100 µM (inactive) | > 100 µM (inactive) | > 100 µM (inactive)
CCCCCCCCCC[C@@H](O)[C@@H]1CC[C@H]([C@H]2CC[C@@H]([C@@H](O)CCCCCCCCCC[C@H]3CC(CC(C)=O)C(=O)O3)O2)O1 (stereo partly drawn) | 12 µM (inactive) | 15.7 µM (inactive) | 13.5 µM (inactive) | 3.15 µM (inactive) | 7.16 µM (inactive) | 8.47 µM (inactive) | 0.955 µM (active) | 9.35 µM (inactive) | 0.0324 µM (active) | 10.2 µM (inactive) | – | < 0.01 µM (active) | 8.77 µM (inactive) | 3.07 µM (inactive) | – | –
CC(SC(=S)Nc1cccc(F)c1)C(=O)O (stereo not drawn) | – | 26.2 µM (inactive) | 33.3 µM (inactive) | – | 51.2 µM (inactive) | 25.5 µM (inactive) | 16.6 µM (inactive) | 16.1 µM (inactive) | 13.4 µM (inactive) | 16.1 µM (inactive) | 26.5 µM (inactive) | 13.3 µM (inactive) | 31.7 µM (inactive) | 21.2 µM (inactive) | 13.8 µM (inactive) | 14.2 µM (inactive)
CC/N=C(/C#N)NCC | > 100 µM (inactive) | > 100 µM (inactive) | 18.7 µM (inactive) | > 100 µM (inactive) | > 100 µM (inactive) | > 100 µM (inactive) | 55.3 µM (inactive) | > 100 µM (inactive) | > 100 µM (inactive) | > 100 µM (inactive) | > 100 µM (inactive) | > 100 µM (inactive) | > 100 µM (inactive) | 75.2 µM (inactive) | > 100 µM (inactive) | –
C=CCN1C(=O)C(=O)N(CC=C)C(=O)C1=O | > 100 µM (inactive) | > 100 µM (inactive) | > 100 µM (inactive) | > 100 µM (inactive) | > 100 µM (inactive) | > 100 µM (inactive) | > 100 µM (inactive) | – | > 100 µM (inactive) | > 100 µM (inactive) | – | > 100 µM (inactive) | > 100 µM (inactive) | > 100 µM (inactive) | > 100 µM (inactive) | > 100 µM (inactive)
COc1ccc(C(=O)Nc2ccccc2C#N)cc1 | 51.1 µM (inactive) | > 100 µM (inactive) | > 100 µM (inactive) | > 100 µM (inactive) | > 100 µM (inactive) | > 100 µM (inactive) | > 100 µM (inactive) | > 100 µM (inactive) | – | > 100 µM (inactive) | > 100 µM (inactive) | 54.6 µM (inactive) | > 100 µM (inactive) | > 100 µM (inactive) | > 100 µM (inactive) | > 100 µM (inactive)
OCCSCC/C(=N\N=C(/CCSCCO)c1ccccc1)c1ccccc1 | – | 69.5 µM (inactive) | > 100 µM (inactive) | > 100 µM (inactive) | > 100 µM (inactive) | 89.5 µM (inactive) | > 100 µM (inactive) | > 100 µM (inactive) | – | 93.8 µM (inactive) | 74.5 µM (inactive) | 88.5 µM (inactive) | > 100 µM (inactive) | 44.9 µM (inactive) | – | 36.2 µM (inactive)
N=c1c2ccccc2sc2nc3ccccc3n12 | – | > 100 µM (inactive) | > 100 µM (inactive) | > 100 µM (inactive) | 86.1 µM (inactive) | > 100 µM (inactive) | > 100 µM (inactive) | > 100 µM (inactive) | 71.3 µM (inactive) | > 100 µM (inactive) | > 100 µM (inactive) | > 100 µM (inactive) | > 100 µM (inactive) | > 100 µM (inactive) | > 100 µM (inactive) | > 100 µM (inactive)
COc1cc2ccnc([C@@H](OC(=O)c3ccccc3)c3ccc(OC)c(OC)c3OC)c2cc1OC | 21.5 µM (inactive) | 33.6 µM (inactive) | 36.5 µM (inactive) | 36.2 µM (inactive) | > 100 µM (inactive) | 51.9 µM (inactive) | > 100 µM (inactive) | 59.6 µM (inactive) | 27.8 µM (inactive) | 39.1 µM (inactive) | 32.7 µM (inactive) | 41.8 µM (inactive) | 47.1 µM (inactive) | 53.2 µM (inactive) | – | 26.9 µM (inactive)
